The values below come from patent publication US20210317140A1, “Heterocyclic Compounds and Methods of Use” (MEDIVATION TECHNOLOGIES, INC, priority 2013, published 2021).

The target in test [1] is T1, BTK (Homo sapiens, UniProt Q06187).
T1 construct: purchased Reaction Biology Corporation
Description: BTK kinase assay (HotSpot, 33P ATP). The class given is biochemical. The following applies: for BTK @ 0.1 μM (% Inh): 0.1 μM compound; for BTK @ 0.1 μM (% Inh) / BTK @ 1 μM (% Inh) / BTK @ 0.01 μM (% Inh): 10 μM ATP; for BTK @ 1 μM (% Inh): 1 μM compound; for IC50: 10 dose IC50, 10 μM ATP; for BTK @ 0.01 μM (% Inh): 0.01 μM compound. The procedure:
(§1) Compounds of the invention were profiled in a 10 dose IC50 panel against BTK and PI3Kδ, both provided by Reaction Biology Corporation.
BTK assay: In vitro profiling protein kinases was performed using the “HotSpot” assay platform. Briefly, specific kinase/substrate pairs along with required cofactors were prepared in reaction buffer. Compounds were prepared as 10 mM stock solutions in DMSO. Compounds were delivered into the reaction, followed 15-20 minutes later by addition of a mixture of ATP (Sigma, St. Louis Mo.) and ^33P ATP (Perkin Elmer, Waltham Mass.) to a final concentration of 10 μM. […] IC50 values and curve fits were obtained using Prism (GraphPad Software). Buffer Conditions: 20 mM Hepes (pH 7.5), 10 mM MgCl2, 1 mM EGTA, 0.02% Brij35, 0.02 mg/mL BSA, 0.1 mM Na3VO4, 2 mM DTT, 1% DMSO.

For test [2], the target named is T2, PI3Kδ (Homo sapiens, UniProt O00329).
T2 construct: purchased Reaction Biology Corporation
T2 sequence (O00329 whole entry): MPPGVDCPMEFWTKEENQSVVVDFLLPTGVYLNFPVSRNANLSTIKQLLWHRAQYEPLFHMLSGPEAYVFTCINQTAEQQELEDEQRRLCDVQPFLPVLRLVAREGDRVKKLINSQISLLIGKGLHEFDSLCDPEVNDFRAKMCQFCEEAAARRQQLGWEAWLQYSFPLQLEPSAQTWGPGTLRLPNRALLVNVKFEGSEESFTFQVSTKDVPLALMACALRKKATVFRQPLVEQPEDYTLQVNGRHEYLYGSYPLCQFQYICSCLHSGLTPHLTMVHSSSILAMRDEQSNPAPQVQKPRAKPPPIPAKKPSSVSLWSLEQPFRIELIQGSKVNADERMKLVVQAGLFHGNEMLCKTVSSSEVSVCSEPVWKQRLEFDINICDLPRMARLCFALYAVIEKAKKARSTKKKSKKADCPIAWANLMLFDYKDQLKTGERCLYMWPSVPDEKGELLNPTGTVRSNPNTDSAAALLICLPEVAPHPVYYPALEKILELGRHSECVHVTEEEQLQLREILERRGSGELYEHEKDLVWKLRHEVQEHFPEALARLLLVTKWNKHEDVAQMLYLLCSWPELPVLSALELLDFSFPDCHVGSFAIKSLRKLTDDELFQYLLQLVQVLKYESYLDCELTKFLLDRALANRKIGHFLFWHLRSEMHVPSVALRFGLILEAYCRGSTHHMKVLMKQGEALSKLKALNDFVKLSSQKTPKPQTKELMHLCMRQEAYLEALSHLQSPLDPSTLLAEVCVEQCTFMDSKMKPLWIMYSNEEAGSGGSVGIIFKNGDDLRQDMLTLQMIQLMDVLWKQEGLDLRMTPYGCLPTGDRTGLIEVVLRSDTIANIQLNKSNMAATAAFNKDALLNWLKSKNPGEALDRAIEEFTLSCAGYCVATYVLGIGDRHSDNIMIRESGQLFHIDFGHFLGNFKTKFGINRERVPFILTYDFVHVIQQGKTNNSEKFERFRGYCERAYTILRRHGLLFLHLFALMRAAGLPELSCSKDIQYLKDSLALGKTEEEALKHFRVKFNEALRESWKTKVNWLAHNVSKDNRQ
T2 sequence (P27986 whole entry partner): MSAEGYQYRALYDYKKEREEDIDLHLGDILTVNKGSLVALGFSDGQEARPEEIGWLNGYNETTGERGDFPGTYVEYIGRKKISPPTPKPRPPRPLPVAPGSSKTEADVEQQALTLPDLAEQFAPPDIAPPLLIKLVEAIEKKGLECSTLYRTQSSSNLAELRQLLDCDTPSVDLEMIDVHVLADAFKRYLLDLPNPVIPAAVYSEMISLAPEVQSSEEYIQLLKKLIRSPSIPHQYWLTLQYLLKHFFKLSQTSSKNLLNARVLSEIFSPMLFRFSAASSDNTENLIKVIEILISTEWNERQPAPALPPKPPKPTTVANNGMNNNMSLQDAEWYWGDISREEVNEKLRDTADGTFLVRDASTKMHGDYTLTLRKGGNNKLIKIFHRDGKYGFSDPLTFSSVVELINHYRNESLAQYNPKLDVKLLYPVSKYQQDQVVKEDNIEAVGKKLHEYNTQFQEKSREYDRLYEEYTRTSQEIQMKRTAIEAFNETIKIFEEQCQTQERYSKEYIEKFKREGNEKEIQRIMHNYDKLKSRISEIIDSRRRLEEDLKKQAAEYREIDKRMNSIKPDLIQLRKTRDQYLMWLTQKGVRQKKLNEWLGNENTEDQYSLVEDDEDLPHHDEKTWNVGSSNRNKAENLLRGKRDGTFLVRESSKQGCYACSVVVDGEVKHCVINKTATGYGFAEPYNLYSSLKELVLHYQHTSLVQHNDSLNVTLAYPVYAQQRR
Description: PI3Kδ kinase assay (HTRF, PIP3 detection). The following applies: for PI3Kδ @ 0.1 μM (% Inh): 0.1 μM compound; for PI3Kδ @ 0.1 μM (% Inh) / PI3Kδ @ 1 μM (% Inh) / PI3Kδ @ 0.01 μM (% Inh): 10 μM ATP; for PI3Kδ @ 1 μM (% Inh): 1 μM compound; for IC50: 10 dose IC50, 10 μM ATP; for PI3Kδ @ 0.01 μM (% Inh): 0.01 μM compound. The format is biochemical.
Source text: as §1
PI3Kδ assay: The PIP3 product is detected by displacement of biotin-PIP3 from an energy transfer complex consisting of Europium labeled anti-GST monoclonal antibody, a GST-tagged pleckstrin homology (PH) domain, biotinylated PIP3 and Streptavidin-Allophycocyanin (APC). […] The PIP3 product formed by PI 3-Kinase(h) activity displaces biotin-PIP3 from the complex resulting in a loss of energy transfer and thus a decrease in signal. This is a 3-step reaction: First, the kinase reaction with PIP2 substrate is carried out in the presence of ATP (10 μM), and the reaction is quenched with stop Solution, and then finally detect by adding Detection Mixture followed by incubation (10 min). Reaction procedure: 1) Prepare substrate in freshly prepared Reaction Buffer. 2) Deliver kinase into the substrate solution and gently mix. 3) Deliver compounds in 100% DMSO (1 μM) into the kinase reaction mixture by Acoustic technology (Echo550; nanoliter range), incubate for 10 min at RT. 4) Deliver ATP into the reaction mixture to initiate the reaction. 5) Incubate for 30 min at 30° C. 6) Quench the reaction with Stop Solution. 7) Add Detection Mixture, and incubate for overnight. […] The emission ratio is converted into μM PIP3 production based on PIP3 standard curves. The nonlinear regression to obtain the standard curve and IC50 values are performed using Graphpad Prism software. Assay Buffer: HEPES 50 mM (pH7.0), NaN3 0.02%, BSA 0.01%, Orthovanadate 0.1 mM, 1% DMSO. Detection buffer: HEPES 10 mM (pH7.0), BSA 0.02%, KF 0.16 M, EDTA 4 mM. Substrate: 10 μM PIP2 substrate (PI(4,5)P2).

Where “and” joins values, the source holds several entries; their conditions need not be identical. Equal values may be shown once.

T1 sequence (Q06187 whole entry): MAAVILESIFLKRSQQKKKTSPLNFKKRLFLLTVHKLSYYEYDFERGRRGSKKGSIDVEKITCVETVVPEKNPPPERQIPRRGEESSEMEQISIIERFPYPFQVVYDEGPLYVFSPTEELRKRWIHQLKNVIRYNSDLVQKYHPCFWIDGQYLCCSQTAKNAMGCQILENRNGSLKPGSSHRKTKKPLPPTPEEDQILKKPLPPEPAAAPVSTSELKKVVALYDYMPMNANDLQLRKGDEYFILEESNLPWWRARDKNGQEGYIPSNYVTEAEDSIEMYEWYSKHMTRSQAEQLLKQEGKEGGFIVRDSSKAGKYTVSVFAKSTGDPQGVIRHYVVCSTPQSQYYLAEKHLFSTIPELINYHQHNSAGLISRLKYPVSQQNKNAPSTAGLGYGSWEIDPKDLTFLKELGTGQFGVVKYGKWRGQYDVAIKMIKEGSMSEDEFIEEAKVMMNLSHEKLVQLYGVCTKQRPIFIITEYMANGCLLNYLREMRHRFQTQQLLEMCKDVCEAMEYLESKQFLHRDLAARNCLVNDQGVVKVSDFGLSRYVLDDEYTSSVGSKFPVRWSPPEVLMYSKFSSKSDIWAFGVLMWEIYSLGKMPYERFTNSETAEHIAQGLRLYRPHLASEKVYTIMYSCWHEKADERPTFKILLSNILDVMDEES

`COc1ccc(-c2nn(C3Cc4ccccc4C3)c3ncnc(N)c23)cc1N` [Compound No. 73, 3-(3-amino-4-methoxyphenyl)-1-(2,3-dihydro-1H-inden-2-yl)-1H-pyrazolo[3,4-d]pyrimidin-4-amine]: in test [1], the “BTK @ 0.1 μM (% Inh)” value was 72.03 % Inh; the “BTK @ 1 μM (% Inh)” value was found to be 95.31 % Inh; the midpoint of inhibition, the IC50, lay at 30.5 nM. Also, in test [2], the “PI3Kδ @ 0.1 μM (% Inh)” value was 14.37 % Inh, the “PI3Kδ @ 1 μM (% Inh)” value was 52.39 % Inh and the IC50 was 325 nM.
Consider `Nc1ncnc2c1c(-c1cc(O)c(F)c(F)c1)c(Cl)n2C1Cc2ccccc2C1` [compound 134, 5-[4-amino-6-chloro-7-(2,3-dihydro-1H-inden-2-yl)-7H-pyrrolo[2,3-d]pyrimidin-5-yl]-2,3-difluorophenol], for which, in test [1], the “BTK @ 0.01 μM (% Inh)” value stood at 17.28 % Inh and the “BTK @ 0.1 μM (% Inh)” value is reported as 74.7 % Inh. In addition, in test [2], the “PI3Kδ @ 0.01 μM (% Inh)” value is −6.1 % Inh and the “PI3Kδ @ 0.1 μM (% Inh)” value turned out to be 56.02 % Inh.
Take `COc1cc(F)cc(-c2nn(C3CCc4ccccc4C3)c3ncnc(N)c23)c1` (stereo not drawn) [compound 7, 3-(3-fluoro-5-methoxyphenyl)-1-(1,2,3,4-tetrahydronaphthalen-2-yl)-1H-pyrazolo[3,4-d]pyrimidin-4-amine]: the values for the IC50 in test [1] and in test [2] were 891 nM and 1340 nM, respectively.
Consider `Nc1ncnc2c1c(-c1cc(O)cc(F)c1)nn2C1Cc2cc(F)ccc2C1=O` (stereo not drawn) [compound 51, 2-[4-amino-3-(3-fluoro-5-hydroxyphenyl)-1H-pyrazolo[3,4-d]pyrimidin-1-yl]-5-fluoro-2,3-dihydro-1H-inden-1-one], for which, in test [1], the “BTK @ 0.1 μM (% Inh)” value stood at 41.05 % Inh, the “BTK @ 1 μM (% Inh)” value is listed as 82.76 % Inh and the IC50 turned out to be 422 nM. Also, in test [2], the “PI3Kδ @ 0.1 μM (% Inh)” value turned out to be 73.20 % Inh, the “PI3Kδ @ 1 μM (% Inh)” value is 98.33 % Inh and the concentration for half-maximal inhibition (IC50) turned out to be 65.7 nM.
As for `Nc1ncnc2c1c(-c1cc(O)cc(F)c1)nn2C1CCCc2ccc(F)cc21` (stereo not drawn) [compound 41, 3-[4-amino-1-(7-fluoro-1,2,3,4-tetrahydronaphthalen-1-yl)-1H-pyrazolo[3,4-d]pyrimidin-3-yl]-5-fluorophenol], the “BTK @ 0.1 μM (% Inh)” value in test [1] worked out at 4.89 % Inh. In test [2], the “PI3Kδ @ 0.1 μM (% Inh)” value was 80.15 % Inh.
Take `Nc1ncnc2c1c(-c1ccc3c(c1)NCCO3)nn2C1Cc2ccccc2C1` [Compound No. 99, 1-(2,3-dihydro-1H-inden-2-yl)-3-(3,4-dihydro-2H-1,4-benzoxazin-6-yl)-1H-pyrazolo[3,4-d]pyrimidin-4-amine]: in test [1], the “BTK @ 0.01 μM (% Inh)” value is reported as 17.69 % Inh, the “BTK @ 0.1 μM (% Inh)” value was determined as 56.81 % Inh and the IC50 amounted to 79.6 nM. Further, in test [2], the “PI3Kδ @ 0.01 μM (% Inh)” value is reported as 17.4 % Inh, the “PI3Kδ @ 0.1 μM (% Inh)” value is given as 39.74 % Inh and the IC50 turned out to be 167 nM.
Take `Nc1ncnc2c1c(-c1ccc(Br)c(O)c1)nn2C1CCc2ccccc21` (stereo not drawn) [36b, 5-[4-amino-1-(2,3-dihydro-1H-inden-1-yl)-1H-pyrazolo[3,4-d]pyrimidin-3-yl]-2-bromophenol]: in test [1], the “BTK @ 0.1 μM (% Inh)” value stood at 33.82 % Inh, the “BTK @ 1 μM (% Inh)” value was 76.93 % Inh and it took 123 nM to reach half-maximal inhibition (IC50). Moreover, in test [2], the “PI3Kδ @ 0.1 μM (% Inh)” value was 40.07 % Inh, the “PI3Kδ @ 1 μM (% Inh)” value came to 79.26 % Inh and the IC50 was found to be 155 nM.
Consider `COc1cc(F)cc(-c2nn(C3Cc4ccccc4C3)c3ncnc(N)c23)c1` [compound 5, 1-(2,3-dihydro-1H-inden-2-yl)-3-(3-fluoro-5-methoxyphenyl)-1H-pyrazolo[3,4-d]pyrimidin-4-amine], for which, in test [1], the “BTK @ 0.1 μM (% Inh)” value is 26.26 % Inh; the “BTK @ 1 μM (% Inh)” value was found to be 76.16 % Inh; the IC50 was 1970 nM and 1100 nM. Moreover, in test [2], the “PI3Kδ @ 0.1 μM (% Inh)” value is recorded as 25.0 % Inh; the “PI3Kδ @ 1 μM (% Inh)” value is reported as 54.63 % Inh; the IC50 is 2790 nM and 1220 nM.
`CCOc1cc(-c2nn(C3Cc4ccccc4C3)c3ncnc(N)c23)ccc1OC(F)(F)F` [Compound No. 76, 1-(2,3-dihydro-1H-inden-2-yl)-3-[3-ethoxy-4-(trifluoromethoxy)phenyl]-1H-pyrazolo[3,4-d]pyrimidin-4-amine]: in test [1], the “BTK @ 0.1 μM (% Inh)” value came out at 5.47 % Inh and the “BTK @ 1 μM (% Inh)” value is on record as 6.5 % Inh. Moreover, in test [2], the “PI3Kδ @ 0.1 μM (% Inh)” value was −13.69 % Inh and the “PI3Kδ @ 1 μM (% Inh)” value worked out at 13.55 % Inh.
In the case of `NC(=O)c1cccc(-c2nn(C3CCc4ccccc4C3)c3ncnc(N)c23)c1` (stereo not drawn) [compound 27, 3-(4-amino-1-tetralin-2-yl-pyrazolo[3,4-d]pyrimidin-3-yl)benzamide], the “BTK @ 0.1 μM (% Inh)” value in test [1] came to 13.54 % Inh. For the same molecule, the “PI3Kδ @ 0.1 μM (% Inh)” value in test [2] is on record as 4.7 % Inh.
Consider `COc1ncc(-c2nn(C3CCc4ccccc4C3)c3ncnc(N)c23)cc1F` (stereo not drawn) [compound 23, 3-(5-fluoro-6-methoxypyridin-3-yl)-1-(1,2,3,4-tetrahydronaphthalen-2-yl)-1H-pyrazolo[3,4-d]pyrimidin-4-amine], for which, in test [1], the “BTK @ 0.1 μM (% Inh)” value is on record as 15.45 % Inh. Also, the “PI3Kδ @ 0.1 μM (% Inh)” value in test [2] is 23.11 % Inh.
`Nc1cccc(-c2nn(C3Cc4ccccc4C3)c3ncnc(N)c23)c1` [Compound No. 45, 3-(3-aminophenyl)-1-(2,3-dihydro-1H-inden-2-yl)-1H-pyrazolo[3,4-d]pyrimidin-4-amine]: in test [1], the “BTK @ 0.1 μM (% Inh)” value is 49.32 % Inh and the “BTK @ 1 μM (% Inh)” value amounted to 87.47 % Inh. In addition, in test [2], the “PI3Kδ @ 0.1 μM (% Inh)” value is reported as 12.84 % Inh and the “PI3Kδ @ 1 μM (% Inh)” value was 44.54 % Inh.
Regarding `N#Cc1c(-c2cc(O)c(F)c(F)c2)c2c(N)ncnc2n1C1Cc2ccccc2C1` [compound 135, 4-amino-5-(3,4-difluoro-5-hydroxyphenyl)-7-(2,3-dihydro-1H-inden-2-yl)-7H-pyrrolo[2,3-d]pyrimidine-6-carbonitrile], in test [1], the “BTK @ 0.01 μM (% Inh)” value worked out at 51.3 % Inh and the “BTK @ 0.1 μM (% Inh)” value turned out to be 88.59 % Inh. Further, in test [2], the “PI3Kδ @ 0.01 μM (% Inh)” value is reported as 51.74 % Inh and the “PI3Kδ @ 0.1 μM (% Inh)” value was 84.33 % Inh.
`COc1cc(F)cc(-c2nn(C3CCc4ccccc43)c3ncnc(N)c23)c1` (stereo not drawn) [compound 4, 1-(2,3-dihydro-1H-inden-1-yl)-3-(3-fluoro-5-methoxyphenyl)-1H-pyrazolo[3,4-d]pyrimidin-4-amine]: the results for the IC50 in test [1] and in test [2] were 584 nM and 1830 nM, respectively.
`Nc1ncnc2c1c(-c1cn[nH]c1)nn2C1CCc2ccccc2C1` (racemic) [compound 20, 3-(1H-pyrazol-4-yl)-1-(1,2,3,4-tetrahydronaphthalen-2-yl)-1H-pyrazolo[3,4-d]pyrimidin-4-amine]: the IC50 in test [1] was 2020 nM; in test [2], 157 nM.
Consider `CC(=O)Nc1cc(F)cc(-c2nn(C3Cc4ccccc4C3)c3ncnc(N)c23)c1` [Compound No. 60, N-{3-[4-amino-1-(2,3-dihydro-1H-inden-2-yl)-1H-pyrazolo[3,4-d]pyrimidin-3-yl]-5-fluorophenyl}acetamide], for which, in test [1], the “BTK @ 0.1 μM (% Inh)” value is 16.91 % Inh and the “BTK @ 1 μM (% Inh)” value was determined as 30.02 % Inh. Besides, in test [2], the “PI3Kδ @ 0.1 μM (% Inh)” value stood at 10.65 % Inh and the “PI3Kδ @ 1 μM (% Inh)” value was determined as 31.35 % Inh.
Take `Nc1ncnc2c1c(-c1ccnc(O)c1)nn2C1Cc2ccccc2C1` [Compound No. 52, 4-[4-amino-1-(2,3-dihydro-1H-inden-2-yl)-1H-pyrazolo[3,4-d]pyrimidin-3-yl]pyridin-2-ol]: in test [1], the “BTK @ 0.1 μM (% Inh)” value is 9.25 % Inh and the “BTK @ 1 μM (% Inh)” value is 24.21 % Inh. In test [2], the “PI3Kδ @ 0.1 μM (% Inh)” value is on record as 6.493 % Inh and the “PI3Kδ @ 1 μM (% Inh)” value turned out to be 37.25 % Inh.
